This passage reports IC50 and Activity results from ChEMBL document CHEMBL5346930, “Discovery of novel N-benzylarylamide-dithiocarbamate based derivatives as dual inhibitors of tubulin polymerization and LSD1 that inhibit gastric cancers” (Eur J Med Chem, 2023).

Assay [1] has as its system MGC-803. The assay is described as follows: cells. As to conditions: Homo sapiens, MGC-803, 48 h.
Description: Antiproliferative activity against human MGC-803 cells assessed as inhibition of cell growth incubated for 48 hrs by MTT assay
Another assay has as its system HCT-116. Briefly: cells. As to conditions: Homo sapiens, HCT-116, 48 h.
Another assay concerns KYSE-450. The assay is described as follows: cells. The settings on record: Homo sapiens, KYSE-450, 48 h.
Assay [2] deals with Lysine-specific histone demethylase 1A (Homo sapiens, UniProt O60341). Briefly: Inhibition of recombinant LSD1 (unknown origin) using H3K4me2 peptide as substrate preincubated for 10 mins followed by substrate addition and measured after 30 mins by amplex red based fluorescence microplate reader analysis.
For assay [3], the system named is MGC-803. Briefly: Antitumor activity against human MGC-803 cells xenografted in BALB/c nude mouse assessed as tumor growth inhibition at 25 mg/kg/day, ip administered every day for 21 days. As to conditions: time 21.0 day. Type of assay: functional, organism-based. On the technique in general: Xenograft models place foreign cells or tissue in a host animal.
The subject of assay [4] is MGC-803. The assay is described as follows: Antitumor activity against human MGC-803 cells xenografted in BALB/c nude mouse assessed as reduction in tumor weight at 25 mg/kg/day, ip administered every day for 21 days. In kind it is functional, organism-based. As to conditions: time 21.0 day.
The subject of assay [5] is MGC-803. Briefly: Antitumor activity against human MGC-803 cells xenografted in BALB/c nude mouse assessed as reduction in tumor volume at 25 mg/kg/day, ip administered every day for 21 days. Type of assay: functional, organism-based. The settings on record: time 21.0 day.

As a reminder, the IC50 is the concentration at which inhibition is half-maximal.

The source made the active and inactive calls. No cut-off for these calls is given here.

Description for HCT-116: Antiproliferative activity against human HCT-116 cells assessed as inhibition of cell growth incubated for 48 hrs by MTT assay
Description for KYSE-450: Antiproliferative activity against human KYSE-450 cells assessed as inhibition of cell growth incubated for 48 hrs by MTT assay

As to `COC(=O)N1CCN(C(=S)SCC(=O)N(Cc2ccc(OC)c(O)c2)c2cc(OC)c(OC)c(OC)c2)CC1`, the IC50 in the assay with MGC-803 [1] was 140 nM; in the assay with HCT-116, 160 nM; with KYSE-450, 160 nM.
Turning to `COc1ccc(CN(C(=O)CSC(=S)N2CCN(C(C)C)CC2)c2cc(OC)c(OC)c(OC)c2)cc1O`, the figures for the half-inhibitory concentration (IC50) in the assay on MGC-803 [1], in the assay on HCT-116 and in the assay with KYSE-450 were 100 nM, 160 nM and 170 nM, respectively.
For the compound `COc1ccc(CN(C(=O)CSC(=S)N2CCN(c3ccccc3)CC2)c2cc(OC)c(OC)c(OC)c2)cc1O`, the IC50 stood at 62 nM in the assay with MGC-803 [1], 78 nM with HCT-116 and 52 nM with KYSE-450.
The matching figures for `COc1cccc(N2CCN(C(=S)SCC(=O)N(Cc3ccc(OC)c(O)c3)c3cc(OC)c(OC)c(OC)c3)CC2)c1`: 75 nM, 150 nM and 59 nM.
The matching figures for `COc1ccc(CN(C(=O)CSC(=S)N2CCC(c3ccccc3)CC2)c2cc(OC)c(OC)c(OC)c2)cc1O`: 340 nM, 170 nM and 380 nM.
Taken in the same sequence, the figures for `COc1ccc(CN(C(=O)CSC(=S)N2CCN(S(C)(=O)=O)CC2)c2cc(OC)c(OC)c(OC)c2)cc1O` were 230 nM, 500 nM and 430 nM.
Take `COc1ccc(N2CCN(C(=S)SCC(=O)N(Cc3ccc(OC)c(O)c3)c3cc(OC)c(OC)c(OC)c3)CC2)cc1`: the IC50 came to 45 nM in the assay with MGC-803 [1], 59 nM in the assay with HCT-116 and 67 nM with KYSE-450.
Take `CCN1CCN(C(=S)SCC(=O)N(Cc2ccc(OC)c(O)c2)c2cc(OC)c(OC)c(OC)c2)CC1`: the IC50 with MGC-803 [1] worked out at 250 nM; with KYSE-450 it was 310 nM.
On to `NC1CCC(N[C@@H]2C[C@H]2c2ccccc2)CC1` (stereo not given in full), for which the IC50 in the assay on MGC-803 [1], in the assay with HCT-116 and with KYSE-450 was over 20000 nM throughout.
Consider `Cc1ccc(Cn2cc(CSC(=S)N3CCN(C(=O)OC(C)(C)C)CC3)nn2)cc1`, for which the IC50 in the assay on MGC-803 [1] was 2810 nM; with HCT-116, 12800 nM; in the assay on KYSE-450 it was over 20000 nM.
Taken in the same sequence, the figures for `COc1ccc(CN(C(=O)CSC(=S)N2CCC(C(=O)OC(C)(C)C)CC2)c2cc(OC)c(OC)c(OC)c2)cc1O` were 180 nM, 110 nM and 200 nM.
The matching figures for `COc1ccc(CN(C(=O)CSC(=S)N2CCN(c3ccc(O)cc3)CC2)c2cc(OC)c(OC)c(OC)c2)cc1O`: 78 nM, 100 nM and 86 nM.
Taken in the same sequence, the figures for `CCCCN1CCN(C(=S)SCC(=O)N(Cc2ccc(OC)c(O)c2)c2cc(OC)c(OC)c(OC)c2)CC1` were 30 nM, 97 nM and 73 nM.
Take `COc1ccc(CN(C(=O)CSC(=S)N2CCN(c3ccc([N+](=O)[O-])cc3)CC2)c2cc(OC)c(OC)c(OC)c2)cc1O`: the results for the IC50 in the assay on MGC-803 [1], with HCT-116 and with KYSE-450 were 54 nM, 67 nM and 72 nM, respectively.
Taken in the same sequence, the figures for `CCOC(=O)N1CCN(C(=S)SCC(=O)N(Cc2ccc(OC)c(O)c2)c2cc(OC)c(OC)c(OC)c2)CC1` were 79 nM, 89 nM and 69 nM.
The matching figures for `COC(=O)C1CCN(C(=S)SCC(=O)N(Cc2ccc(OC)c(O)c2)c2cc(OC)c(OC)c(OC)c2)CC1`: 310 nM, 230 nM and 280 nM.
Taken in the same sequence, the figures for `COc1ccc(CN(C(=O)CSC(=S)N2CCC(O)CC2)c2cc(OC)c(OC)c(OC)c2)cc1O` were 560 nM, 800 nM and 460 nM.
Consider `COc1ccc(CN(C(=O)CSC(=S)N2CCN(C(=O)OC(C)(C)C)CC2)c2cc(OC)c(OC)c(OC)c2)cc1O`, for which the 50% inhibitory concentration (IC50) with MGC-803 [1] worked out at 84 nM; in the assay with HCT-116 it was 220 nM; in the assay with KYSE-450 it was 78 nM; in assay [2], 2670 nM.
With `CCOC(=O)C1CCN(C(=S)SCC(=O)N(Cc2ccc(OC)c(O)c2)c2cc(OC)c(OC)c(OC)c2)CC1`, the concentration for half-maximal inhibition (IC50) was 700 nM in the assay on MGC-803 [1], 690 nM in the assay with HCT-116 and 670 nM with KYSE-450.
The matching figures for `COc1ccc(CN(C(=O)CSC(=S)N2CCN(c3ccc(Br)cc3)CC2)c2cc(OC)c(OC)c(OC)c2)cc1O`: 27 nM, 51 nM and 36 nM.
Taken in the same sequence, the figures for `COc1ccc(CN(C(=O)CSC(=S)N2CCN(C(=O)C3CC3)CC2)c2cc(OC)c(OC)c(OC)c2)cc1O` were 120 nM, 100 nM and 200 nM.
Taken in the same sequence, the figures for `COc1ccc(CN(C(=O)CSC(=S)N2CCN(C=O)CC2)c2cc(OC)c(OC)c(OC)c2)cc1O` were 190 nM, 120 nM and 210 nM.
On to `COc1ccc(CN(C(=O)CSC(=S)N2CCC(C)CC2)c2cc(OC)c(OC)c(OC)c2)cc1O`, for which the concentration for half-maximal inhibition (IC50) was determined as 380 nM in the assay on MGC-803 [1], 890 nM in the assay on HCT-116 and 860 nM in the assay with KYSE-450.
Taken in the same sequence, the figures for `COc1ccc(CN(C(=O)CSC(=S)N2CCN(c3ccc(C#N)cc3)CC2)c2cc(OC)c(OC)c(OC)c2)cc1O` were 26 nM, 79 nM and 37 nM.
The matching figures for `COc1ccc(CN(C(=O)CSC(=S)N2CCN(C3CC3)CC2)c2cc(OC)c(OC)c(OC)c2)cc1O`: 120 nM, 480 nM and 210 nM.
Turning to `COc1ccc(CN(C(=O)CSC(=S)N2CCN(C(C)(C)C)CC2)c2cc(OC)c(OC)c(OC)c2)cc1O`, the figures for the half-maximal inhibitory concentration (IC50) with MGC-803 [1], with HCT-116 and with KYSE-450 were 430 nM, 620 nM and 700 nM, respectively.
Regarding `COc1ccc(CN(C(=O)CSC(=S)N2CCC(OC)CC2)c2cc(OC)c(OC)c(OC)c2)cc1O`, the IC50 in the assay on MGC-803 [1] amounted to 1260 nM; in the assay on HCT-116 it was 600 nM; in the assay on KYSE-450, 890 nM.
Take `COc1ccc(CN(C(=O)CSC(=S)N2CCN(C(C)=O)CC2)c2cc(OC)c(OC)c(OC)c2)cc1O`: the figures for the half-maximal inhibitory concentration (IC50) in the assay with MGC-803 [1] and in the assay with KYSE-450 were 460 nM and 340 nM, respectively.
As to `COc1ccc(CN(C(=O)CSC(=S)N2CCN(c3ccccc3OC)CC2)c2cc(OC)c(OC)c(OC)c2)cc1O`, the 50% inhibitory concentration (IC50) in the assay with MGC-803 [1] came out at 120 nM; in the assay with HCT-116, 240 nM; with KYSE-450, 320 nM.
For `COc1ccc(CN(C(=O)CSC(=S)N2CCN(CCO)CC2)c2cc(OC)c(OC)c(OC)c2)cc1O`, the IC50 with MGC-803 [1] is 540 nM; in the assay with HCT-116, 520 nM; with KYSE-450, 490 nM.
`COc1ccc(/C=C\c2cc(OC)c(OC)c(OC)c2)cc1O`: the result with MGC-803 [3], with MGC-803 [4] and in the assay with MGC-803 [5] was Active.
For the compound `COc1ccc(CN(C(=O)CSC(=S)N2CCN(C)CC2)c2cc(OC)c(OC)c(OC)c2)cc1O`, the half-inhibitory concentration (IC50) was determined as 270 nM with MGC-803 [1], 820 nM with HCT-116 and 750 nM in the assay with KYSE-450.
Taken in the same sequence, the figures for `C/C=C/C(=O)N(Cc1ccc(OC)c(O)c1)c1cc(OC)c(OC)c(OC)c1` were 28 nM, 54 nM and 62 nM.
Taken in the same sequence, the figures for `COc1ccc(CN(C(=O)CSC(=S)N2CCCC(C)C2)c2cc(OC)c(OC)c(OC)c2)cc1O` (stereo not given) were 480 nM, 640 nM and 530 nM.
Taken in the same sequence, the figures for `COc1ccc(CN(C(=O)CSC(=S)N2CCN(c3ccc(F)cc3)CC2)c2cc(OC)c(OC)c(OC)c2)cc1O` were 39 nM, 46 nM and 67 nM.
As to `COc1ccc(CN(C(=O)CSC(=S)N2CCN(c3ccc(Cl)cc3)CC2)c2cc(OC)c(OC)c(OC)c2)cc1O`, the values for the 50% inhibitory concentration (IC50) with MGC-803 [1], in the assay on HCT-116 and in the assay with KYSE-450 were 38 nM, 59 nM and 45 nM, respectively.
The matching figures for `COc1cc2c(c(OC)c1OC)-c1ccc(OC)c(=O)cc1[C@@H](NC(C)=O)CC2` [COLCHICINE]: 56 nM, 78 nM and 70 nM.
